Experiments:
Hsp90 = assay: Luciferase refolding assay in PC3-MM2 cells; type: cell-based; conditions: 2 hours; for Hsp90-mediated refolding of denatured luciferase: 0.097-100 μM; for IC50 of Hsp90-mediated luciferase refolding activity: concentrations examined 100, 25, 6.25, 1.56, 0.39 and 0.097 μM
Protocol: Luciferase refolding assay. Compound dissolved in DMSO at the indicated concentrations or a DMSO control was evaluated in a luciferase refolding assay in PC3-MM2 cells as previously described (Hall, et al. J. Med. Chem. 2016, 59, 925-933) and dose-response curves of the luminescence signal relative to DMSO control were generated using GraphPad Prism 5.0.

Aha1 and Hsp90 complexes = target: T1, Aha1 and Hsp90 complexes (Homo sapiens, UniProt O95433); assay: Co-immunoprecipitation of Hsp90α with Aha1 from PC3-MM2 cells; type: cell-based; conditions: 10 μM, 24 hours
T1 construct: endogenous in cells; host or cells: PC3-MM2 cells
T1 sequence (O95433 whole entry, one chain of several): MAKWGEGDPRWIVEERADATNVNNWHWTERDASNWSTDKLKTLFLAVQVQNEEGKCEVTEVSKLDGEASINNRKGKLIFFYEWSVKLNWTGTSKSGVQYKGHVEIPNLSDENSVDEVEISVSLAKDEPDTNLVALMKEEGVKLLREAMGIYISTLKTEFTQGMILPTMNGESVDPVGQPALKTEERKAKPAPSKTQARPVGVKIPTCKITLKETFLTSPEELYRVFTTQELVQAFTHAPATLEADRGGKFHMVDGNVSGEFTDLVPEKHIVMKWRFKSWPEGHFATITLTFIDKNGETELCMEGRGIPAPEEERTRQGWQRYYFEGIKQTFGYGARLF
Protocol: (§1) Co-immunoprecipitation. Co-immunoprecipitation of Hsp90α with Aha1 from PC3-MM2 and iHek P301L cells incubated with the indicated compounds for 24 hours were performed as previously described (Ghosh, et al. ACS Chem. Biol. 2015, 10, 577-590).

tau in iHEK-P301L cells = assay: Soluble and sarkosyl-insoluble tau in iHEK-P301L cells (Western blot); type: cell-based; conditions: 10 μM
Protocol: (§2) Cell culture and transfection. iHek-P301L cells (Ghosh, et al. ACS Med. Chem. Lett. 2016, 7, 813-818) and luciferase expressing PC3-MM2 cells (Ghosh, et al. ACS Med. Chem. Lett. 2016, 7, 813-818) were cultured in DMEM media supplemented with 10% FBS and 1% Penicillin-Streptomycin (Invitrogen). Inducible cells were incubated with 3 μg of tetracycline for 72 h. 48 h prior to harvest, transfections were performed with 2.5 μL Lipofectamine 2000 (Invitrogen) per 1 μg of DNA, which was incubated in serum-free Opti-MEM for 5 minutes before adding the mixture dropwise to the cells. KU-177 was added 24 h prior to harvest at indicated concentrations. Cells were harvested in Tsaio TBS buffer (50 mM Tris Base, 274 mM NaCl, 5 mM KCl, pH 8.0) containing protease inhibitors. Samples were prepared as previously described (Ramsden, et al. J. Neurosci. 2005, 25, 10637-10647) to obtain soluble (S1) and sarkosyl-insoluble (P3) fractions.
Western blot and dot blot analysis. Cell and mouse brain tissues samples were analyzed by Western blot using 4-15% SDS gradient gels (BioRad). Antibody dilutions were 1:1000 unless otherwise stated, and all secondary antibodies were used at 1:1000 (Southern Biotech). Blots were developed using ECL (Pierce) on a LAS-4000 mini imager (GE Healthcare). For dot blots, proteins were applied onto a wet nitrocellulose membrane and dried by vacuum. […]

[1] = target: T2, Recombinant human P301L tau with Hsp90 and Aha1 (Homo sapiens, UniProt O95433); assay: Thioflavin T fluorescence assay of tau fibril formation; type: biochemical; conditions: 10 μM compound vs DMSO, tau with Hsp90 alone or Hsp90 and Aha1
T2 construct: His tag (with TEV site) (N, cleaved yes); made in house; host or cells: E. coli (BL21) one-shot star, pet28a (tau and Aha1); Hsp90α was a gift from Dr. Johannes Buchner
T2 sequence (O95433 whole entry, stated change not applied): as the sequence (O95433 whole entry, one chain of several) above
Protocol: (§3) Protein Expression. Recombinant human P301L tau, Aha1, Aha1 E67K, p23, FKBP51, FKBP52, and CDC37 were expressed and purified. Hsp90α protein was a kind gift from Dr. Johannes Buchner. Recombinant human P301L tau, Aha1, Aha1 E67K, p23, FKBP51, FKBP52, and CDC37 were cloned into bacterial expression vector, pet28a with a His tag followed by a TEV sequence. Plasmids were transformed into E. coli (BL21) one-shot star cells and plated onto kanamycin-agar plates. Plates were grown at 37° C. for approximately 16 hours. 10 mL LB broth with kanamycin starter cultures were then inoculated with a colony and the starter culture grown for 8 hours. 1 L cultures were then inoculated at 1:100 dilution and grown to OD600 of 0.8. Cultures were induced with the addition of 1 mM IPTG and the incubator temperature was reduced to 16° C. Cultures were then grown for 14 hours. Cells were then pelleted at 3,500×g for 30 minutes and supernatant discarded. Pellets were resuspended in lysis buffer (20 mM Tris-HCl pH 8.0, 500 mM NaCl, 10 mM Imidazole with protease inhibitors) and frozen at −80° C. Bacterial pellets were then thawed and lysed by sonication. Lysates were then spun at 50,000×g for 1 hr. […]
Thioflavin T Fluorescence Assay. […] Fluorescence was read at 440 nm excitation and 482 nm emission in a BioTek Synergy H1 plate reader at indicated time points. […]

binding of Aha1 to Hsp90 = target: T3, binding of Aha1 to Hsp90 (Homo sapiens, UniProt O95433); assay: Co-immunoprecipitation of Hsp90 with Aha1 from iHEK cells; type: cell-based; conditions: 10 μM, 24 hours
T3 construct: Immunoprecipitated Aha1 from iHEK cells treated±10 μM KU-177 for 24 hours; endogenous in cells; host or cells: iHEK-P301L cells (tetracycline-inducible P301L tau)
Protocol: as §2, §1

[2] = tested on: recombinant P301L tau fibrils; assay: Transmission electron microscopy of tau fibrils; type: biochemical, human; conditions: KU-177 vs DMSO control
Protocol: as §3, with “hr. Next, the supernatant was purified by nickel affinity chromatography (Nickel Resin, Fisher #PI88222). Protein purity and expression was then checked by Coomassie stained SDS-PAGE.” for “hr.”

| Structure (SMILES) | Hsp90-mediated refolding of denatured luciferase (Hsp90) | Aha1 and Hsp90 complexes (immunoprecipitation of Aha1, Western blot) (Aha1 and Hsp90 complexes) | IC50 of Hsp90-mediated luciferase refolding activity (Hsp90) | sarkosyl-insoluble tau (tau in iHEK-P301L cells; iHEK-P301L cells transfected with Aha1-WT, Aha1-E67K or empty vector) | soluble, phosphorylated tau (tau in iHEK-P301L cells; iHEK-P301L cells) | Recombinant P301L tau fibril formation measured by ThT fluorescence [1] | binding of Aha1 to Hsp90 (immunoprecipitation of Aha1, Western blot) (binding of Aha1 to Hsp90) | tau fibril formation observed by TEM [2] |
| --- | --- | --- | --- | --- | --- | --- | --- | --- |
| COc1cccc(-c2cc(C(=O)Nc3cc4ccc(O[C@@H]5OC(C)(C)[C@H](OC)C(O)[C@@H]5O)c(OC)c4oc3=O)ccc2OC)c1 (stereo partly shown) [KU-174] | inhibited | inhibited |  |  |  |  |  |  |
| COc1cccc(-c2cc(C(=O)Nc3cc4ccc(OC(C)=O)c(OC)c4oc3=O)ccc2OC)c1 [KU-177] | did not inhibit | inhibited | higher than the range of concentrations examined here | reduce insoluble tau | increased soluble, phosphorylated tau | significantly reduce tau fibril formation | inhibited the binding of Aha1 to Hsp90 | robust reduction in tau fibril formation |
| COc1cccc(-c2cc(C(=O)Nc3cc4ccc(O)c(OC)c4oc3=O)ccc2OC)c1 [KU-308] | did not inhibit | inhibited | higher than the range of concentrations examined here |  |  |  |  |  |
